Entries after “also recorded” stand apart in the source; their conditions may differ.
Key:
[1] = Long-term stability tests of crystalline Compound A Form 1 (storage, HPLC purity and XRPD); type: physicochemical; details: for Purity: HPLC
Procedure: (§1) XRPD analysis was carried out on a PANalytical X'pert Pro with PIXcel detector (128 channels), scanning the samples between 3 and 35° 2θ. The material was gently ground (where required) to release any agglomerates and loaded onto a multi-well plate with Kapton or Mylar polymer film to support the sample. The multi-well plate was then placed into the diffractometer and analyzed using Cu K radiation (α1 λ=1.54060 Å; α2 λ=1.54443 Å; β=1.39225 Å; α1:α2 ratio=0.5) running in transmission mode (step size 0.0130° 2θ, step time 18.87s) using 40 kV/40 mA generator settings. Data were visualized and images generated using the HighScore Plus 4.7 desktop application (PANalytical, 2017). Crystalline Compound A Form 1 was not changed after storage at 25° C/60%RH for 36 months or storage at 40° C/75%RH for 6 months. Purity was determined by HPLC analysis.

[2] = Accelerated stability tests of crystalline Compound A Form 1 (storage, HPLC purity and XRPD); type: physicochemical; details: 7 days; for Purity: HPLC
Procedure: as §1, with “room temperature” for “25° C/60%RH”, “7 days, storage at 40° C./75% RH for 7 days,” for “36 months”, “80° C.” for “40° C/75%RH”, “7 days.” for “6 months.”

[3] = 25° C./60% RH (closed container), 3 months
[4] = 25° C./60% RH (closed container), 6 months
[5] = 25° C./60% RH (closed container), 12 months
[6] = 25° C./60% RH (closed container), 24 months
[7] = 25° C./60% RH (closed container), 36 months
[8] = 40° C./75% RH (closed container), 1 month
[9] = 40° C./75% RH (closed container), 3 months
[10] = 40° C./75% RH (closed container), 6 months

C[N+](C)(C)CCCCCn1c2ccc(Br)cc2c2cc(Br)ccc21.[Cl-] [Compound A Form 1, 5-(3,6-dibromo-9H-carbazol-9-yl)-N,N,N-trimethylpentan-1-aminium chloride Form 1]
not changed; also recorded: Unchanged: XRPD [1, 7] | XRPD [1, 10] | XRPD ([2]; 40° C./75% RH (open vial)) | XRPD ([2]; 80° C. (closed vial)) | XRPD ([2]; Room Temperature (open vial))
99.8%: Purity [1, 10]
99.93%: Purity ([2]; 40° C./75% RH (open vial)) | Purity ([2]; 80° C. (closed vial)) | Purity ([2]; Room Temperature (open vial))
99.7%: Purity [1, 3] | Purity [1, 4] | Purity [1, 5] | Purity [1, 6] | Purity [1, 7] | Purity [1, 8] | Purity [1, 9]
Unchanged: XRPD [1, 3] | XRPD [1, 4] | XRPD [1, 5] | XRPD [1, 6] | XRPD [1, 8] | XRPD [1, 9]
